The test system of series [1] is Mdr2−/− mice (model of PSC). The series is described as follows: Liver damage, bile acids and inflammation in Mdr2−/− mice (H&E, TBA kit, F4/80 IHC). The format is in vivo, mouse. The conditions noted are these: 20 mg/kg IP daily, 2 weeks. Here is the method: (§1) Animal procedures were performed according to protocols approved by Indiana University School of Medicine Institutional Animal Care and Use Committee. […] Male Mdr2^−/− mice (n = 8) were collected at twelve-weeks for PSC model. Twelve-week-old male Friend Virus B NIH Jackson (FVB/NJ [FVB/wild type (WT) control], n = 8) mice were used as control WT for Mdr2^−/−.
(§2) In all groups, serum, liver, cholangiocytes, and cholangiocyte supernatants were collected as described ([18], [19]). The collected liver was divided into three portions: (i) snap-frozen tissue; (ii) OCT-embedded blocks (5 μm cryosections) for immunofluorescence (IF); and (iii) formalin-fixed, paraffin-embedded (FFPE) blocks (4 μm sections) for immunohistochemistry (IHC).
Liver damage was assessed by hematoxylin and eosin (H&E) staining in FFPE mouse liver sections and scored in a coded fashion to determine portal inflammation. Serum and liver total bile acids (TBAs) were determined using a TBA Assay Kit (Colorimetric, Sigma-Aldrich).
(§3) Liver inflammation was evaluated by IHC for F4/80 in FFPE mouse liver sections, and positive cells were quantified by Image-Pro Premier software (Rockville, MD). Liver MC infiltration was detected with IHC for tryptase β-2 (Tpsb2) and mucosal MC chymase-1 (mMCP1) in liver sections. MCs were semi-quantified as Tpsb2 or mMCP1 positivite cell number/total area with Image-Pro Premier software (Rockville, MD). MC activation was determined by qPCR for Fc fragment of IgE, high affinity I, receptor for alpha polypeptide (Fcer1a), Mcpt1 and Tpsb2 in total liver samples.
(§4) Since we found increased chymase levels in human PSC livers, we evaluated the pharmacological inhibition of chymase in modulating PSC in Mdr2^−/− mice. […] All treatment groups were compared to Mdr2^−/− mice.

On the set-up of series [2]: method as in earlier work. The conditions noted are these: Phase 2 clinical trial, atopic dermatitis; cited from earlier work.
For series [3], the system named is Mdr2−/− mice (model of PSC). The experiment in a line: Ductular reaction and biliary senescence in Mdr2−/− mice (CK-19 IHC, p16 IF, qPCR). The conditions noted are these: 20 mg/kg IP. The format is in vivo, mouse. Here is the method: as §1, §2
Ductular reaction was evaluated in FFPE mouse liver sections by IHC for CK-19 to specifically mark bile ducts. Stained slides were scanned by a digital scanner (Aperio AT2 scanner; Leica Biosystems). CK-19-positive area was quantified using the Image-Pro Premier software (Rockville, MD). Biliary senescence was evaluated by: (i) IF for p16 expression in frozen liver sections co-stained with CK-19 (to mark bile ducts) and (ii) mRNA expression of cellular senescence markers, cyclin dependent kinase inhibitor 2a (Cdkn2a; gene for p16), cyclin dependent kinase inhibitor 2c (Cdkn2c, gene for p18) and galactosidase, beta 1-like (Glb1l) in isolated mouse cholangiocytes ([3], [19]).
as §4
(In qPCR the cycle at which signal appears reflects the starting amount.)

Series [4] concerns aortic aneurysm model. Details: method as in PMID 31128093. The conditions noted are these: 10 mg/kg for 4 weeks; cited from earlier work.
Series [5] relates to Mdr2−/− mice (model of PSC). The series is described as follows: MC infiltration and activation in liver of Mdr2−/− mice (IHC, qPCR). Type of series: in vivo, mouse. To be noted: 20 mg/kg IP daily, 2 weeks. As to the method:
as §1, §2, §3, §4

Series [6] deals with Mdr2−/− mice (model of PSC). The experiment in a line: Liver fibrosis in Mdr2−/− mice (FG/SR, hydroxyproline, desmin IF, qPCR). The format is in vivo, mouse. Here is the method: as §1, §2
Collagen deposition was determined by Fast Green/Sirius Red staining in FFPE mouse liver sections and quantified by the Image-Pro Premier software (Rockville, MD). Liver fibrosis was also determined by measuring hydroxyproline levels in total liver samples using the hydroxyproline assay kit (MAK008-1KT; Millipore Sigma, Billerica, MA). To detect activated HSCs, IF for desmin (co-stained with CK-19) was performed in frozen liver sections with semi-quantification ([20], [21]). The mRNA expression of the fibrosis markers, collagen type I alpha 1 (Col1a1) and tissue inhibitor of metalloproteinases 2 (Timp2) and transforming growth factor beta 1 (Tgfb1) was measured in total mouse livers by qPCR.
as §4

Series [7] deals with Mdr2−/− mice (model of PSC). The arrangement: method as in PMID 10711453. The conditions noted are these: cited from earlier work.
Setting [8] is: male Mdr2−/− mice, vs untreated Mdr2−/−, qPCR total liver.
Where [9] appears, read: 20 mg/kg IP daily, 2 weeks, qPCR total liver.
Where [10] appears, read: 20 mg/kg IP daily, 2 weeks, vs untreated mice.

`CCC[C@@H](NC(=O)N1CC(=NOCC)NC[C@H](Cc2cc(Cl)ccc2OC)C1=O)c1ccc(C(=O)O)c(N)c1` [INVA8001]: in series [1], the “histological damage (H&E)” value is on record as “amelioration” and the “portal inflammation (H&E)” value is listed as “amelioration”. In addition, the liver enzymes result in series [1] (data not shown) was “no significant changes”. For the same molecule, in series [1] (liver tissue), the “hepatic total bile acid (TBA) accumulation” value is listed as “significant reduction”. Moreover, the “number of infiltrating macrophages (F4/80 staining)” value in series [1] (portal tracts, IHC) is reported as “significantly reduced”. Also, the “serum total bile acid (TBA) accumulation” value in series [1] (serum) is recorded as “significant reduction”. The “safety and tolerability, adverse effects” value in series [2] is given as “no significant adverse effects reported”. In addition, the “p16 immunoreactivity in liver” value in series [3] (IF co-stained with CK-19) was “reduced”. Further, the “bile duct mass (CK-19-positive bile ducts)” value in series [3] (IHC) is given as “significant reduction”. Besides, in series [3] (qPCR isolated cholangiocytes), the “Cdkn2a expression in isolated cholangiocytes” value is “reduced”, the “Cdkn2c expression in isolated cholangiocytes” value was “reduced”, the “Glb1l expression in isolated cholangiocytes” value was “reduced” and the “Tgfb1 expression in isolated cholangiocytes” value is “reduced”. In addition, in series [3] (qPCR total liver), the “Cdkn2a mRNA expression in total liver” value was “reduced”. Moreover, the “efficacy in a model of aortic aneurysm” value in series [4] is “effective”. In series [5] (Mdr2−/− mice, IHC), the “number of chymase (mMCP1)-positive cells in liver” value is listed as “significant reduction” and the “number of tryptase (Tpsb2)-positive cells in liver” value was “significant reduction”. Besides, in series [5] (setting [8]), the “Fcer1a mRNA expression in liver” value is given as “attenuated”, the “Mcpt1 mRNA expression in liver” value is recorded as “attenuated” and the “Tpsb2 mRNA expression in liver” value is given as “decreasing trend (not statistically significant)”. Also, in series [6] (setting [9]), the “Col1a1 gene expression in liver” value is “significantly reduced”, the “Tgfb1 gene expression in liver” value was “significantly reduced” and the “Timp2 gene expression in liver” value is listed as “significantly reduced”. Besides, in series [6] (setting [10]), the “hepatic fibrosis, FG/SR staining” value is “decreased” and the liver hydroxyproline content entry is recorded as “lowered”. Further, the “desmin immunoreactivity (HSC activation)” value in series [6] (20 mg/kg IP, IF liver sections) was “significantly reduced”.

Turning to `O=C(O)c1cc(=O)c2c(OCC(O)COc3cccc4oc(C(=O)O)cc(=O)c34)cccc2o1` [cromolyn sodium], the “levels of MC mediators, inflammation, tissue damage, and fibrosis” value in series [7] is “attenuates”.

The record behind these values is PMC13288762 (Frontiers in Medicine, 2026).
